Here are results for 12 compounds from patent publication US8974823B2, “Solid compositions of low-solubility drugs and poloxamers” (Bend Research, Inc., priority 2003, dated 2015).

What all share (type): physicochemical
Data set [1] in a line: glass transition temperature (Tg) of the drug. The following applies: for Tg: Table B, unless noted Tg measured at less than 10% RH. Here is the method: In a first aspect, the invention comprises a solid composition comprising a plurality of particles. The particles comprise a low-solubility drug and a poloxamer. The drug is in intimate contact with the poloxamer in the particles. Collectively, the drug and poloxamer constitute at least 50 wt % of the particles. At least a substantial portion of the drug in the composition is amorphous. The Tg of the drug is at least 50° C. Unless otherwise noted, as used herein the Tg refers to the Tg measured at less than 10% RH.
Such Tg values may represent that of drug dispersed in the amorphous portions of the poloxamer or the Tg of drug-rich phases or domains. […] The Tg of the drug may be at least about 60° C., at least about 70° C., or even at least about 80° C. The Tg of a drug can be determined using standard analytical techniques well known in the art, including by a dynamic mechanical analyzer (DMA), a dilatometer, a dielectric analyzer, and by differential scanning calorimetry (DSC).

Data set [2] in a line: in vitro dissolution test of Drug 4 compositions in PBS. The following applies: for AUC / Drug 4 Concentration: 1000 μg/mL if all dissolved; for Drug 4 Concentration: 37° C. Here is the method:
(§1) The solid compositions of Examples 1-2 were evaluated in an in vitro dissolution test to ascertain concentration enhancement of Drug 1. A […] sample of each solid composition was added in duplicate to a microcentrifuge tube, so that the total concentration of Drug 1 would have been 2000 μg/mL if all of the drug had dissolved. The tubes were placed in a 37° C. temperature-controlled chamber, and 1.8 mL PBS containing 0.5 wt % sodium taurocholic acid and 1-palmitoyl-2-oleyl-sn-glycero-3-phosphocholine (NaTC/POPC, with a 4/1 weight ratio) at pH 6.5 and 290 mOsm/kg (simulating a Model Fasted Duodenal solution) was added to each respective tube. The samples were quickly mixed using a vortex mixer for about 60 seconds. The samples were centrifuged at 13,000 G at 37° C. for 1 minute. The resulting supernatant solution was then sampled and diluted 1:6 (by volume) with methanol and then analyzed by high-performance liquid chromatography (HPLC). The contents of each respective tube were mixed on a vortex mixer and allowed to stand undisturbed at 37° C. until the next sample was taken. Samples were collected at 4, 10, 20, 40, 90, and 1200 minutes.
The solid compositions of Examples 10-13 were evaluated in an in vitro dissolution test as in Examples 1-2, except that the dissolution medium was PBS. The amount of each composition added to the microcentrifuge tube was adjusted so that the concentration of Drug 4 in solution if all of the drug had dissolved was 1000 μg/mL.
The spray-dried compositions of Examples 14-15 were evaluated in an in vitro dissolution test as in Examples 10-13. The amount of each composition added to the microcentrifuge tube was adjusted so that the concentration of Drug 4 in solution if all of the drug had dissolved was […].
This composition was evaluated in an in vitro dissolution test as in Examples 10-13.

Data set [3] can be described thus: in vitro dissolution test of Drug 1 compositions in Model Fasted Duodenal solution. To be noted: for AUC: MFD solution; for AUC / Drug 1 Concentration: 2000 μg/mL if all dissolved; for Drug 1 Concentration: MFD solution pH 6.5, 37° C. Here is the method:
as §1
As a control (C1), a sample of crystalline Drug 1 alone was tested in the same manner so that the concentration of Drug 1 in MFD solution would have been 2000 μg/mL if all of the drug had dissolved.
The concentrations of drug obtained in these samples were used to determine the maximum drug concentration (“MDC90”) and the area under the concentration-versus-time curve (“AUC90”) during the initial 90 minutes.

Consider “4-[3-[4-(2-methylimidazol-1-yl) phenylthio] phenyl]-3,4,5,6-tetrahydro-2H-pyran-4-carboxamide hemifumarate”, for which the Tg in data set [1] turned out to be 81 °C.

Compound `O=C(O)c1ccc(C(F)(F)F)cc1-c1ccc2c(c1)OCC(Cc1ccccc1)C2O` (single isomer, unassigned; (+)) [(+)-2-(3-benzyl-4hydroxy-chroman-7-yl)-4-trifluoromethyl-benzoic acid] registered a Tg in data set [1] of 53 °C.

In data set [1], `CON(C)C(=O)C(O)[C@H](Cc1ccccc1)NC(=O)c1cc2cc(Cl)ccc2[nH]1` (stereo in doubt) [[R—(R*,S*)]-5-chloro-N-[2-hydroxy-3-[(methoxymethylamino)-3-oxo-1-(phenylmethyl)propyl]propyl]-1H-indole-2-carboxamide] registered a Tg of 80 °C.

As for `CC(C)c1c(C(=O)Nc2ccccc2)c(-c2ccccc2)c(-c2ccc(F)cc2)n1CCC(O)CC(O)CC(=O)[O-].CC(C)c1c(C(=O)Nc2ccccc2)c(-c2ccccc2)c(-c2ccc(F)cc2)n1CCC(O)CC(O)CC(=O)[O-].O.O.O.[Ca+2]` (stereo not drawn) [2-(4-fluorophenyl)-beta, delta-dihydroxy-5-(1-methylethyl)-3-phenyl-4-[(phenylamino)carbonyl]-1H-pyrrole-1-heptanoic acid, calcium salt (2:1), trihydrate], the Tg in data set [1] worked out at 111 °C.

`C[C@@H]1CC[C@@]2(OC1)O[C@H]1C[C@H]3[C@@H]4CC[C@H]5C[C@@H](O[C@@H]6O[C@H](CO)[C@@H](O[C@@H]7O[C@H](COC(=O)Nc8ccccc8F)[C@@H](OC(=O)Nc8ccccc8F)[C@H](O)[C@H]7O)[C@H](O)[C@H]6O)CC[C@]5(C)[C@H]4CC(=O)[C@]3(C)[C@H]1[C@@H]2C` [3-[(4-O-{4,6-bis(2-flurophenylcarbamoyl)]-β-D-glucopyranolsyl-)β-D-flucopyranosyl]oxy-(3β,5α,25R)-spirostan-12-one] came in with a Tg in data set [1] of 143 °C.

Take `O=C(NC(Cc1ccccc1)C(=O)N1CC(O)C1)c1cc2cc(Cl)ccc2[nH]1` (stereo not drawn) [5-chloro-1H-indole-2-carboxylic acid [(1)-benzyl-2-(3-hydroxy-azetidin-1-yl)-2-oxo-ethyl]-amide]: in data set [1], the Tg is 91 °C.

Consider `Cl.Cl.O=C(O)COCCN1CCN(C(c2ccccc2)c2ccc(Cl)cc2)CC1` (stereo not drawn) [(2(-(4-((4-chlorophenyl)phenylmethyl)-1-piperazinyl)ethoxy)acetic acid, dihrochloride], for which the Tg in data set [1] turned out to be 112 °C.

For `CCOC(=O)N1c2ccc(C(F)(F)F)cc2[C@@H](N(Cc2cc(C(F)(F)F)cc(C(F)(F)F)c2)C(=O)OC)C[C@H]1CC` [Control C6, Torcetrapib], the “Cmax90” value in data set [2] (Drug 4, initial 90 minutes) was <1 µg/mL. For the same compound, the AUC90 in data set [2] (Drug 4, initial 90 minutes, Table 12) is < 88 µg·min/mL; in data set [2] (Drug 4, initial 90 minutes, Table 15), <88 min-μg/mL; in data set [2] (Drug 4, initial 90 minutes, Table 18), <88 µg·min/mL. The AUC in data set [2] (Drug 4, time 0 min) is listed as 0 min-μg/mL; in data set [2] (Drug 4, time 4 min) it was <2 min-μg/mL; in data set [2] (Drug 4, time 10 min) it was <8 min-μg/mL; in data set [2] (Drug 4, time 20 min), <18 min-μg/mL; in data set [2] (Drug 4, time 40 min), <38 min-μg/mL; in data set [2] (Drug 4, time 90 min) it was <88 min-μg/mL. The AUC in data set [2] (Drug 4, time 1200 min) was <1,200 min-μg/mL. In addition, the “Drug 4 Concentration” value in data set [2] (time 0 min) is 0 µg/mL; in data set [2] (time 4 min) it was <1 µg/mL; in data set [2] (time 10 min), <1 µg/mL; in data set [2] (time 20 min), <1 µg/mL; in data set [2] (time 40 min), <1 µg/mL; in data set [2] (time 90 min), <1 µg/mL. Moreover, the “Drug 4 Concentration” value in data set [2] (time 1200 min) is <1 µg/mL.

In turn, `O=C(N[C@@H](Cc1ccccc1)[C@@H](O)C(=O)N1C[C@@H](O)[C@@H](O)C1)c1cc2cc(Cl)ccc2[nH]1` [Drug 1, 5-chloro-1H-indole-2-carboxylic acid [(1S)-benzyl-(2R)-hydroxy-3-((3R,4S)-dihydroxy-pyrrolidin-1-yl-)-3-oxypropyl]amide] had a Tg in data set [1] of 96 °C. For the same compound, the “Tg,drug” value in data set [1] (at ambient RH) came out at 113 °C.

With `O=C(N[C@@H](Cc1ccccc1)[C@@H](O)C(=O)N1C[C@@H](O)[C@@H](O)C1)c1cc2cc(Cl)ccc2[nH]1` [Example C1, 5-chloro-1H-indole-2-carboxylic acid [(1S)-benzyl-(2R)-hydroxy-3-((3R,4S)-dihydroxy-pyrrolidin-1-yl-)-3-oxypropyl]amide], the AUC90 in data set [3] (Drug 1, MFD, initial 90 minutes) is on record as 21,600 min * μg/mL. Further, the MDC90 in data set [3] (Drug 1, MFD, maximum drug concentration during initial 90 minutes) worked out at 255 µg/mL. Besides, the AUC was 0 µg·min/mL in data set [3] (Drug 1, time 0 min); 400 µg·min/mL in data set [3] (Drug 1, time 4 min); 1700 µg·min/mL in data set [3] (Drug 1, time 10 min); 4100 µg·min/mL in data set [3] (Drug 1, time 20 min); 9000 µg·min/mL in data set [3] (Drug 1, time 40 min); 21,600 min * μg/mL in data set [3] (Drug 1, time 90 min). Besides, the AUC in data set [3] (Drug 1, time 1200 min) was 299,000 min * μg/mL. In addition, the “Drug 1 Concentration” value in data set [3] (time 0 min) worked out at 0 µg/mL; in data set [3] (time 4 min), 204 µg/mL; in data set [3] (time 10 min) it was 227 µg/mL; in data set [3] (time 20 min), 243 µg/mL; in data set [3] (time 40 min), 250 µg/mL; in data set [3] (time 90 min), 255 µg/mL. Besides, the “Drug 1 Concentration” value in data set [3] (time 1200 min) was 244 µg/mL.

Compound `O=C1Cc2cc(CCN3CCN(c4nsc5ccccc45)CC3)c(Cl)cc2N1` [Ziprasidone] came in with a Tg in data set [1] of 72 °C.

In data set [1], `CCC(CC)Nc1cc(C)nc(Oc2c(C)cc(C)cc2C)c1C.Cl` [[3,6-dimethyl-2-(2,4,6-trimethyl-phenoxy)-pyridin-4-yl]-(1-ethyl-propyl)-amine hydrochloride] gave a Tg of 87 °C.
